{
  "source": "patent USRE40901E1",
  "about": "“Taxane derivatives and processes for the preparation thereof” (Indena S.p.A., priority 1999, dated 2009)",
  "key": {"[1]": {"system": "cancerous cells of breast, lung, ovary, colon, prostate, kidney, pancreas", "test": "cytotoxic and anticancer activity against cancerous cells", "format": "cell-based", "conditions": "statement in words, no data"}, "[2]": {"system": "cell lines expressing the MDR phenotype", "test": "overcoming resistance of MDR cell lines", "format": "cell-based", "conditions": "statement in words, no data"}},
  "data": [
    {"smiles": "CC(=O)O[C@H]1C(=O)[C@@]2(C)C([C@H](OC(=O)c3ccccc3)[C@]34OC(=O)O[C@H]3[C@H](OC(=O)[C@H](O)[C@H](CC(C)C)NC(=O)OC(C)(C)C)C(C)=C1C4(C)C)[C@]1(OC(C)=O)CO[C@@H]1C[C@H]2O", "note": "(stereo partly drawn) [Compound (I), 13-(N-Boc-β-isobutylserinyl)-14β-hydroxybaccatine V, 1,14 carbonate]", "values": [
      {"measurement": "cytotoxic and anticancer activities", "setting": "[1]", "value": "remarkable cytotoxic and anticancer activities"},
      {"measurement": "overcoming the resistance of cell lines expressing the MDR phenotype", "setting": "[2]", "value": "capable of overcoming the resistance"}
    ]}
  ]
}
